How the values were obtained:
MOLT-4 = assay: EC50 in cancer cell line, rilpivirine alone; format: cell-based; conditions: Homo sapiens, Acute lymphoblastic leukemia
SU-DHL-8 = assay: EC50 in cancer cell line, rilpivirine alone; format: cell-based; conditions: Homo sapiens, Large cell lymphoma
647-V = assay: EC50 in cancer cell line, rilpivirine alone; format: cell-based; conditions: Homo sapiens, Bladder
JVM-2 = assay: EC50 in cancer cell line, rilpivirine alone; format: cell-based; conditions: Homo sapiens, Mantle cell lymphoma
J-RT3-T3-5 = assay: EC50 in cancer cell line, rilpivirine alone; format: cell-based; conditions: Homo sapiens, Acute T-cell leukemia
COR-L105 = assay: EC50 in cancer cell line, rilpivirine alone; format: cell-based; conditions: Homo sapiens, NSCLC
SK-N-BE(2) cell line = assay: MTT cell proliferation assay, SK-N-BE(2); format: cell-based
Description: (§1) In the present invention, the IC50 concentrations required to inhibit the activity of IMR-32 cell line and other neuroblastoma cell lines were determined for rilpivirine and other chemotherapeutic agents, and presented on the two-coordinate plot with x- and y-axes, forming the two points (IC50, rilpivirine, 0) and (0, IC50, chemotherapeutic agents). […] Moreover, the concentration or ratios of rilpivirine in combination with chemotherapeutic agents which provide the same inhibition effect are denoted as point (Crilpivirine, 50, Cchemotherapeutic agents, 50) in the same plot.
(§2) The combination index provides a quantitative measurement of the drug-drug interaction at the given effect level. The combination index (CI) is calculated by following equation: […]
(§3) The IMR-32, SK-N-SH, SH-SY5Y and SK-N-BE(2) tumor cell lines were purchased from American Type Culture Collection (ATCC, Manassas, VA). […] The cells were incubated for 72 hours and then cell proliferation was measured by 3-(4,5-dimethyl-2-thiazolyl)-2,5-diphenyl-2H-tetrazolium bromide (MTT) colorimetric assays (Sigma-Aldrich, Inc., St. Louis, MO). […] Absorbance of each well was measured with a spectrophotometer (uQuant SpectroMAX Gemini Dual-scanning microplate spectro, Bio-tek Instrument Inc.) at 550 nm. Growth inhibition was expressed as the ratio of the mean absorbance of treated cells relative to that of the control.

TUR = assay: EC50 in cancer cell line, rilpivirine alone; format: cell-based; conditions: Histiocytic lymphoma
DOHH-2 = assay: EC50 in cancer cell line, rilpivirine alone; format: cell-based; conditions: Homo sapiens, B-cell lymphoma
IMR-32 cell line = assay: MTT cell proliferation assay, IMR-32; format: cell-based, human
Description: as §1, §2, §3

BxPC-3 = assay: EC50 in cancer cell line, rilpivirine alone; format: cell-based; conditions: Homo sapiens, Pancreas
SU-DHL-4 = assay: EC50 in cancer cell line, rilpivirine alone; format: cell-based; conditions: Homo sapiens, B-cell non-Hodgkin lymphoma
SK-N-SH cell line = assay: MTT cell proliferation assay, SK-N-SH; format: cell-based
Description: as §1, §2, §3

MOLT-16 = assay: EC50 in cancer cell line, rilpivirine alone; format: cell-based; conditions: Homo sapiens, Acute lymphoblastic leukemia
U-937 = assay: EC50 in cancer cell line, rilpivirine alone; format: cell-based; conditions: Homo sapiens, Histiocytic lymphoma
TF-1 = assay: EC50 in cancer cell line, rilpivirine alone; format: cell-based; conditions: Homo sapiens, Erythroleukemia
U-87 MG = assay: EC50 in cancer cell line, rilpivirine alone; format: cell-based; conditions: Homo sapiens, Glioblastoma/malignant glioma
Jurkat = assay: EC50 in cancer cell line, rilpivirine alone; format: cell-based; conditions: Homo sapiens, Acute lymphoblastic leukemia
[1] = system: cleaved poly (ADP-ribose) polymerase (PARP) and phosphor-histone H2A.X (p-H2A.X); assay: Expression of cleaved PARP and p-H2A.X in SK-N-BE(2); format: cell-based; conditions: increasing rilpivirine 0.12, 0.37, 1.11, 3.3, and 10 μM
SNU-16 = assay: EC50 in cancer cell line, rilpivirine alone; format: cell-based; conditions: Homo sapiens, Stomach
KU812 = assay: EC50 in cancer cell line, rilpivirine alone; format: cell-based; conditions: Homo sapiens, Chronic myelogenous leukemia
PC-3 = assay: EC50 in cancer cell line, rilpivirine alone; format: cell-based; conditions: Homo sapiens, Prostate
MV-4-11 = assay: EC50 in cancer cell line, rilpivirine alone; format: cell-based; conditions: Homo sapiens, MV4-11, Biphenotypic B myelomonocytic leukemia
D283Med = assay: EC50 in cancer cell line, rilpivirine alone; format: cell-based; conditions: Homo sapiens, D283 Med, Medulloblastoma
ST486 = assay: EC50 in cancer cell line, rilpivirine alone; format: cell-based; conditions: Homo sapiens, Burkitt's lymphoma
GA-10 = assay: EC50 in cancer cell line, rilpivirine alone; format: cell-based; conditions: Homo sapiens, Burkitt's lymphoma
[2] = system: cleaved poly (ADP-ribose) polymerase (PARP) and phosphor-histone H2A.X (p-H2A.X); assay: Expression of cleaved PARP and p-H2A.X in SK-N-SH; format: cell-based; conditions: increasing rilpivirine 0.12, 0.37, 1.11, 3.3, and 10 μM
CHP-212 = assay: EC50 in cancer cell line, rilpivirine alone; format: cell-based; conditions: Homo sapiens, Neuroblastoma
pancreatic cancer cells = conditions: in vitro (PloS ONE 10(6):e0130277, 2015); cited from earlier work
MES-SA = assay: EC50 in cancer cell line, rilpivirine alone; format: cell-based; conditions: Homo sapiens, Uterine sarcoma
IM-9 = assay: EC50 in cancer cell line, rilpivirine alone; format: cell-based; conditions: Homo sapiens, Multiple myeloma

SMILES: Cc1cc(/C=C/C#N)cc(C)c1Nc1ccnc(Nc2ccc(C#N)cc2)n1 [rilpivirine]
- EC50 (MOLT-4): 3.75 µM
- EC50 (SU-DHL-8): 4.19 µM
- EC50 (647-V): 12.3 µM
- EC50 (JVM-2): 2.74 µM
- EC50 (J-RT3-T3-5): 4.04 µM
- EC50 (COR-L105): 3.11 µM
- growth of neuroblastoma cell line under rilpivirine treatment (SK-N-BE(2) cell line): successfully inhibited
- IC50 (SK-N-BE(2) cell line; Homo sapiens, SKNBE2, rilpivirine alone, 72 hours): 3.37 µM
- EC50 (TUR): 2.08 µM
- EC50 (DOHH-2): 4.45 µM
- growth of neuroblastoma cell line IMR-32 (IMR-32 cell line; 5 μM rilpivirine treatment for 24 hours): significantly inhibited
- IC50 (IMR-32 cell line; Homo sapiens, IMR-32, rilpivirine alone, 72 hours): 2.97 µM
- EC50 (BxPC-3): 11.3 µM
- EC50 (SU-DHL-4): 4.29 µM
- growth of neuroblastoma cell line under rilpivirine treatment (SK-N-SH cell line): successfully inhibited
- IC50 (SK-N-SH cell line; Homo sapiens, rilpivirine alone, 72 hours): 2.75 µM
- EC50 (MOLT-16): 3.38 µM
- EC50 (U-937): 3.37 µM
- EC50 (TF-1): 3.76 µM
- EC50 (U-87 MG): 14.4 µM
- EC50 (Jurkat): 3.68 µM
- expression of cleaved PARP and p-H2A.X [1]: increased gradually
- EC50 (SNU-16): 4.23 µM
- EC50 (KU812): 4.09 µM
- EC50 (PC-3): 6.23 µM
- EC50 (MV-4-11): 4.88 µM
- EC50 (D283Med): 3.54 µM
- EC50 (ST486): 3.76 µM
- EC50 (GA-10): 3.7 µM
- expression of cleaved PARP and p-H2A.X [2]: increased gradually
- EC50 (CHP-212): 3.26 µM
- toxic potential against pancreatic cancer cells (pancreatic cancer cells): high toxic potential
- EC50 (MES-SA): 4.91 µM
- EC50 (IM-9): 4.13 µM

From US12023334B2, “Composition including rilpivirine and method for treating tumors or cancer” (APTORUM THERAPEUTICS LIMITED, priority 2019, dated 2024)
